In US20150164824A1, “METHODS AND COMPOSITIONS USEFUL FOR IMPROVING BONE AND JOINT HEALTH” (ABBOTT LABORATORIES, priority 2012, published 2015):

How the values were obtained:
[1] = test system: Human osteoclast precursors; assay: OsteoLyse assay: osteoclast differentiation and collagen degradation in vitro; assay type: cell-based; settings: relative to standard control wells (100%); day seven of culture; FIG. 1
Procedure: A 96-well OsteoLyse™ assay system (commercially available from Lonza Biosciences, Walkersville, Md.) was used for this evaluation. Specifically, a 96-well OsteoLyse™ plate was coated with fluorophore-derivatized human bone matrix (europium conjugated collagen). Human osteoclast precursors, at a density of 10,000/200 μl of differentiation medium (containing M-CSF and RANK Ligand) were seeded onto the surface of the plate. Triplicate cell culture wells were treated with one of: Curcumin in DMSO; Vitamin K2 in ethanol; combination of Curcumin and Vitamin K2; and alendronate (control). Cell culture wells with only differentiation medium were treated as standard control wells. After six days of culture, old medium was removed and 200 μl of fresh differentiation medium was added to all wells. Twenty-four hours later, on day seven of culture, 10 μl of medium supernatant was used for fluorescence measurement. For the measurement, 10 μl of medium supernatant was added to 100 μl of fluorophore-releasing agent (Lonza Bioscience, Walkersville, Md.) in a black-walled 96-well plate. The samples were briefly mixed and fluorescence was determined using a time-resolved fluorescence fluorimeter (Spectramax M5, available from Molecular Devices, Sunnyvale, Calif., with excitation at 340 nm and emission at 615 nm) over a 400-microsecond time period after an initial delay of 400 microseconds. Osteoclast differentiation in a standard control cell culture well was assumed to be 100% and relative osteoclast differentiation, with respect to control wells, in other cell culture wells was calculated and plotted on the bar graph shown in FIG. 1.

[2] = test system: Primary human osteoclast precursors; assay: OsteoAssay plate / CalciFluor assay: bone resorption by osteoclasts; assay type: cell-based; settings: relative to standard control cells; calcium release, day eight of culture; FIG. 2
Procedure: A 96-well OsteoAssay™ plate (commercially available from Lonza Biosciences, Walkersville, Md.) was used for this evaluation. Specially, a 96-well OsteoAssay™ plate was coated with a thin-layer of adherent human bone particles. Primary human osteoclast precursors, at a density of 10,000/200 μl of differentiation medium (containing M-CSF and RANK Ligand), were seeded onto the surface of the plate. Triplicate cell culture wells were treated with one of: Curcumin in DMSO; Vitamin K2 in ethanol; combination of Curcumin and Vitamin K2; and alendronate (control). Cell culture wells with only differentiation medium were treated as standard control wells. After six days of culture, old medium was removed and 200 μl of fresh basal resorption medium containing M-CSF and RANK Ligand was added to all wells. Forty-eight hours later, on day eight of culture, 10 μl of medium supernatant was used for calcifluor assay. […] The samples were briefly mixed and fluorescence was determined using a fluorimeter (Spectramax M5, available from Molecular Devices, Sunnyvale, Calif., with excitation at 551 nm and emission at 577 nm). The concentration of calcium in each well was calculated based on the standard curve. […] The relative percentage inhibition of bone resorption, with respect to standard control cells, was calculated and plotted on the bar graph as shown in FIG. 2.

| Compound | inhibition of osteoclast differentiation [1] | inhibition of bone resorption [2] |
| --- | --- | --- |
| COc1cc(/C=C/C(=O)CC(=O)/C=C/c2ccc(O)c(OC)c2)ccc1O [Curcumin, (1E,6E)-1,7-bis(4-hydroxy-3-methoxyphenyl)-1,6-heptadiene-3,5-dione] | did not significantly inhibit | 39.7% |
| menaquinone [Vitamin K2] | did not significantly inhibit | 31.9% |
| NCCCC(O)(P(=O)(O)O)P(=O)(O)O [Alendronate, reference compound] | 53.6% |  |
